Measurements from ChEMBL document CHEMBL1143119, “Novel methylene-linked heterocyclic EP1 receptor antagonists” (Bioorg Med Chem Lett, 2008).

Legend:
[1] = Distribution coefficient, log D at pH 7.8; type: physicochemical; settings: octanol/water
[2] = target: T1, Prostaglandin E2 receptor EP1 subtype (Homo sapiens, UniProt P34995); experiment: Displacement of [3H]PGE2 from EP1 receptor
T1 sequence (P34995 whole entry): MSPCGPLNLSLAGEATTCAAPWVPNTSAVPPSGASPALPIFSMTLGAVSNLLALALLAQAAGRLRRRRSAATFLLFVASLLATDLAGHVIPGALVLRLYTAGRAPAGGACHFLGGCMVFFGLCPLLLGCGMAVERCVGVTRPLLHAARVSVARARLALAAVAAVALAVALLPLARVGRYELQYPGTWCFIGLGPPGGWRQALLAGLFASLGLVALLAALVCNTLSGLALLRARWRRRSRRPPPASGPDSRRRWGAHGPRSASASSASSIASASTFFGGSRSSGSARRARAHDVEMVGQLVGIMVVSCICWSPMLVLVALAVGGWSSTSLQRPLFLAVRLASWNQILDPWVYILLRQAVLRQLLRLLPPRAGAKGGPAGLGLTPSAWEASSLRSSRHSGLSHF

[3] = target: T1, Prostaglandin E2 receptor EP1 subtype; experiment: Antagonist activity at EP1 receptor by FLIPR assay; type: functional

SMILES	logD [1]	IC50 [2] [nM]	Ki [3] [nM]
O=C(O)c1cccc(C2=C(c3cc(Cl)ccc3OCc3ccccc3)CCC2)c1	3	–	–
Cc1ccc(-c2cc(Cl)ccc2OCC(C)C)n1-c1cccc(C(=O)O)c1	3.1	–	–
Cc1cc(C(=O)O)nn1Cc1cc(Br)ccc1OCc1ccccc1	1.2	6.31	–
CC(C)COc1ccc(Cl)cc1Cc1nc(C(=O)O)cs1	–	7.94	–
O=C(O)c1csc(Cc2cc(Cl)ccc2OCc2ccccc2)n1	1.2	6.31	–
O=C(O)c1csc(Cc2cc(Cl)ccc2OCc2ccccc2)c1	2.8	39.8	–
O=C(O)c1coc(Cc2cc(Cl)ccc2OCc2ccccc2)n1	0.5	20	1.58
O=C(O)c1cnc(Cc2cc(Cl)ccc2OCc2ccccc2)s1	0.9	631	–
O=C(O)c1nc(Cc2cc(Cl)ccc2OCc2ccccc2)cs1	1.1	25.1	–
O=C(O)c1cncc(Cc2cc(Cl)ccc2OCc2ccccc2)c1	1.4	631	–
O=C(O)c1ccnc(Cc2cc(Cl)ccc2OCc2ccccc2)c1	1.1	> 1000	–
O=C(O)Cc1csc(Cc2cc(Cl)ccc2OCc2ccccc2)n1	–	> 1000	–
Cc1cc(CC(=O)O)nn1-c1cc(Cl)ccc1OCc1ccccc1	–	> 1000	–
O=C(O)c1csc(-c2cc(Cl)ccc2OCc2ccccc2)n1	–	631	–
O=C(O)c1cccc(Cc2cc(Cl)ccc2OCc2ccccc2)n1	2.2	158	–
Cc1cc(C(=O)O)nn1Cc1cc(Cl)ccc1OCC(C)C	–	10	0.794
O=C(O)c1ccc(Cc2cc(Cl)ccc2OCc2ccccc2)o1	1.5	6.31	2

SMILES	logD [1]	IC50 [2] [nM]	Ki [3] [nM]
O=C(O)c1cccc(Oc2cc(Cl)ccc2OCc2ccccc2)n1	–	794	–
Cc1ccc(-c2cc(Cl)ccc2OCc2ccccc2)n1-c1cccc(C(=O)O)c1	2.5	–	–
O=C(O)c1csc(Nc2cc(Cl)ccc2OCc2ccccc2)n1	–	25.1	–
CC(C)COc1ccc(Cl)cc1Cc1cccc(C(=O)O)n1	–	39.8	158
CC(C)COc1ccc(Cl)cc1Cc1ccc(C(=O)O)o1	–	3.16	0.316
Cc1cc(C(=O)O)cn1Cc1cc(Cl)ccc1OCc1ccccc1	3	158	–
O=C(O)c1ccn(Cc2cc(Cl)ccc2OCc2ccccc2)n1	0.7	79.4	–
O=C(O)c1cccc(Nc2ccccc2OCc2ccccc2)n1	–	> 1000	–
O=C(O)c1cccc(Cc2cc(Cl)ccc2OCc2ccccc2)c1	3	316	–
Cc1cc(C(=O)O)nn1Cc1cc(Cl)ccc1OCc1ccccc1	1	10	–
O=C(O)Cc1csc(-c2cc(Cl)ccc2OCc2ccccc2)n1	–	50.1	–
Cc1cc(C(=O)O)oc1Cc1cc(Cl)ccc1OCc1ccccc1	1.8	10	2
O=C(O)c1ccc(Cc2cc(Cl)ccc2OCc2ccccc2)s1	2.3	50.1	15.8
Cn1cc(C(=O)O)nc1Cc1cc(Cl)ccc1OCc1ccccc1	0.7	316	–
O=C(O)c1c[nH]c(Cc2cc(Cl)ccc2OCc2ccccc2)n1	0.6	> 1000	–
Cn1c(C(=O)O)cnc1Cc1cc(Cl)ccc1OCc1ccccc1	0.7	> 1000	–
